Experimental data published in the supplement of paper PMC10307832.

Assays:
Assay in all cases: relative viability (nuclei count vs DMSO), 5 days (fraction); higher = more cells survive
[1] = compound: COC1=CC(c2cc3ccccc3[nH]2)=N/C1=C\c1[nH]c(C)cc1C [Obatoclax] + CS(=O)(=O)N1CCN(Cc2cc3nc(-c4cccc5[nH]ncc45)nc(N4CCOCC4)c3s2)CC1 [Pictilisib] (partner 1 µM)
Procedure, shortened: (§1)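 Dosing by pin tool came one day after lung cancer cell lines were seeded in 1536-well plates, using either one drug or a fixed anchor-drug dose plus five library-drug doses (not always all listed) in √10 steps. After 5 days, nuclei were counted on 4× images. Relative viability is treated-well nuclei count divided by vehicle-well nuclei count, and values are medians of duplicate plates.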

[2] = compound: CC(C)C[C@H](NC(=O)[C@H](Cc1ccccc1)NC(=O)c1cnccn1)B(O)O [Bortezomib] + O=C(CCCCCCC(=O)Nc1ccccc1)NO [Vorinostat] (partner 1 µM)
Procedure, shortened: as §1

[3] = compound: CC1=CC(=NN1)NC2=CC(=NC(=N2)/C=C/C3=CC=CC=C3)N4CCN(CC4)C + CS(=O)(=O)CCNCc1ccc(-c2ccc3ncnc(Nc4ccc(OCc5cccc(F)c5)c(Cl)c4)c3c2)o1 [Lapatinib] (partner 2 µM)
Procedure, shortened: as §1

[4] = compound: CC(C)C[C@H](NC(=O)[C@H](Cc1ccccc1)NC(=O)c1cnccn1)B(O)O [Bortezomib] + COc1cccc2cc(-c3nc([C@H]4CC[C@H](C(=O)O)CC4)n4ncnc(N)c34)[nH]c12 [OSI-027] (partner 0.5 µM)
Procedure, shortened: as §1

| Cell Line | relative viability ([1]; first compound 0.01 µM) | relative viability ([1]; first compound 0.03162 µM) | relative viability ([1]; first compound 0.1 µM) | relative viability ([1]; first compound 0.3162 µM) | relative viability ([1]; first compound 1 µM) | relative viability ([2]; first compound 0.0002 µM) | relative viability ([2]; first compound 0.000632 µM) | relative viability ([2]; first compound 0.002 µM) | relative viability ([2]; first compound 0.006325 µM) | relative viability ([2]; first compound 0.02 µM) | relative viability ([3]; first compound 0.08 µM) | relative viability ([3]; first compound 0.253 µM) | relative viability ([3]; first compound 0.8 µM) | relative viability ([3]; first compound 2.53 µM) | relative viability ([3]; first compound 8 µM) | relative viability ([4]; first compound 0.0002 µM) | relative viability ([4]; first compound 0.000632 µM) | relative viability ([4]; first compound 0.002 µM) | relative viability ([4]; first compound 0.006325 µM) | relative viability ([4]; first compound 0.02 µM) |
| --- | --- | --- | --- | --- | --- | --- | --- | --- | --- | --- | --- | --- | --- | --- | --- | --- | --- | --- | --- | --- |
| COR-L23 | 0.792 | 0.946 | 0.737 | 0.252 | 0.154 | 0.474 | 0.446 | 0.192 | 0.0554 | 0.0587 | 0.98 | 1.51 | 1.1 | 0.22 | 0.0755 | 0.808 | 0.755 | 0.58 | 0.0553 | 0.0549 |
| NCI-H2023 | 0.29 | 0.22 | 0.265 | 0.151 | 0.0879 | 0.813 | 0.423 | 0.618 | 0.078 | 0.0655 | 0.849 | 0.92 | 0.765 | 0.0727 | 0.0496 | 0.464 | 0.373 | 0.43 | 0.0814 | 0.0616 |
| A-427 | 0.727 | 0.698 | 0.593 | 0.719 | 0.615 | 0.845 | 0.878 | 0.833 | 0.185 | 0.153 | 1.22 | 1.05 | 0.957 | 0.542 | 0.513 | 0.346 | 0.327 | 0.503 | 0.182 | 0.132 |
| UMC-11 | 0.849 | 0.819 | 0.806 | 0.645 | 0.298 | 0.365 | 0.399 | 0.41 | 0.112 | 0.0837 | 0.9 | 0.758 | 0.63 | 0.152 | 0.128 | 0.461 | 0.472 | 0.493 | 0.325 | 0.148 |
| NCI-H596 | 0.416 | 0.357 | 0.365 | 0.359 | 0.296 | 0.506 | 0.614 | 0.365 | 0.219 | 0.173 | 0.976 | 1.09 | 0.912 | 0.505 | 0.286 | 0.804 | 0.619 | 0.766 | 0.21 | 0.195 |
| LU99A | 0.337 | 0.298 | 0.364 | 0.263 | 0.2 | 0.479 | 0.427 | 0.533 | 0.464 | 0.152 | 0.958 | 0.943 | 0.728 | 0.252 | 0.125 | 0.328 | 0.294 | 0.318 | 0.296 | 0.197 |
| NCI-H2009 | 0.927 | 0.936 | 0.706 | 0.281 | 0.228 | 0.745 | 0.735 | 0.703 | 0.0608 | 0.0437 | 0.907 | 0.628 | 1.03 | 0.451 | 0.189 | 0.664 | 0.585 | 0.486 | 0.0717 | 0.084 |
